Test system in one data set: not listed separately
In words: Storage stability of staining compound solution in DMSO. To be noted: 10 ng/mL in DMSO, closed glass container, normal temperature, 1 month; rate of change of absorbance and fluorescence intensity. Type of data set: physicochemical. Here is the method: A 10 ng/mL solution of each of the staining compounds of Labelled Examples 1 to 78 and Labelled Comparative Examples 1 and 2 in DMSO was prepared, charged into a well-closed container made of glass, and left to stand still at normal temperature for 1 month. The absorbance and the fluorescence intensity at the time of the start of a storage stability test were measured at a given wavelength, and their rates of change were examined (+++: rates of change of the absorbance and the fluorescence intensity are less than 5%, and thus, the storage stability is highly excellent; ++: rates of change of the absorbance and fluorescence intensity are 5 to 15%, and thus, the storage stability is excellent; and −: rates of change of the absorbance and fluorescence intensity are more than 15%, and thus, the storage stability is poor).
Turning to `COc1ccc(N2c3ccc(/C=C4\C(=O)N(c5ccc(C(=O)O)cc5)N=C4C)cc3C3CCCC32)cc1` (stereo not drawn) [Dye 54], the Storage stability entry was “+++ (rates of change of the absorbance and the fluorescence intensity are less than 5%, and thus, the storage stability is highly excellent)”.
For `COc1ccc(N2c3ccc(/C=C(\C#N)C(=O)O)cc3C3CCCC32)cc1` (stereo not drawn) [Dye 56], the Storage stability result is “+++ (rates of change of the absorbance and the fluorescence intensity are less than 5%, and thus, the storage stability is highly excellent)”.
Same read-out and setting: the result for `CCN1C(=O)/C(=c2\s/c(=C/c3cc(Br)c4c(c3)C3CCCC3N4c3ccc(Br)cc3)c(=O)n2CC(=O)O)SC1=S` (stereo not drawn) [Dye 59] reads “+++ (rates of change of the absorbance and the fluorescence intensity are less than 5%, and thus, the storage stability is highly excellent)”; that for `CCCCN1C(=O)/C(=c2\s/c(=C/c3ccc4c(c3)C3CCCC3N4c3ccccc3)c(=O)n2CC(=O)OCC)SC1=S` (stereo not drawn) [Dye 60], “+++ (rates of change of the absorbance and the fluorescence intensity are less than 5%, and thus, the storage stability is highly excellent)”.
Turning to `CCCCN1C(=O)/C(=c2\s/c(=C/c3ccc4c(c3)C3CCCC3N4c3ccc(OC)cc3)c(=O)n2CC(=O)OCC)SC1=S` (stereo not drawn) [Dye 62], the Storage stability entry was “+++ (rates of change of the absorbance and the fluorescence intensity are less than 5%, and thus, the storage stability is highly excellent)”.
For `O=C(O)Cn1c(=O)/c(=C\c2ccc3c(c2)C2CCCC2N3c2ccccc2)s/c1=C1/SC(=S)N(Cc2ccccc2)C1=O` (stereo not drawn) [Dye 66], the Storage stability result was “++ (rates of change of the absorbance and fluorescence intensity are 5 to 15%, and thus, the storage stability is excellent)”.

Test system in the next data set: not listed separately
Kind of data set: Excitation and fluorescence emission wavelength measurement. The format is physicochemical. Also noted: Stokes shift (λem − λex): unit not given here. The note with it: aqueous solution: 10 mg/mL solution in DMSO diluted 500-fold with purified water. As for the experimental part: It should be noted that the excitation wavelength and the fluorescence emission wavelength of the staining compound were determined by measuring an aqueous solution, which had been obtained by diluting 500-fold a 10 mg/mL solution of the staining compound in DMSO with purified water, with a fluorescence spectrophotometer FL 4500 manufactured by Hitachi High-Technologies Corporation.
For `COc1ccc(N2c3ccc(/C=C4\C(=O)N(c5ccc(C(=O)O)cc5)N=C4C)cc3C3CCCC32)cc1` (stereo not drawn) [Dye 54], the Excitation wavelength λex came out at 610 nm, the Fluorescence emission wavelength λem came out at 633 nm and the “Stokes shift (λem − λex)” value came out at 23.
On the same counts, the results for `COc1ccc(N2c3ccc(/C=C(\C#N)C(=O)O)cc3C3CCCC32)cc1` (stereo not drawn) [Dye 56] are 437 nm, 585 nm and 148.
On the same counts, the results for `CCN1C(=O)/C(=c2\s/c(=C/c3cc(Br)c4c(c3)C3CCCC3N4c3ccc(Br)cc3)c(=O)n2CC(=O)O)SC1=S` (stereo not drawn) [Dye 59] are 559 nm, 671 nm and 112.
As to `CCCCN1C(=O)/C(=c2\s/c(=C/c3ccc4c(c3)C3CCCC3N4c3ccccc3)c(=O)n2CC(=O)OCC)SC1=S` (stereo not drawn) [Dye 60], the Excitation wavelength λex worked out at 563 nm, the Fluorescence emission wavelength λem came to 609 nm and the “Stokes shift (λem − λex)” value is reported as 46.
Turning to `CCCCN1C(=O)/C(=c2\s/c(=C/c3ccc4c(c3)C3CCCC3N4c3ccc(OC)cc3)c(=O)n2CC(=O)OCC)SC1=S` (stereo not drawn) [Dye 62], the Excitation wavelength λex came to 450 nm, the Fluorescence emission wavelength λem amounted to 527 nm and the “Stokes shift (λem − λex)” value came out at 77.
On the same counts, the results for `O=C(O)Cn1c(=O)/c(=C\c2ccc3c(c2)C2CCCC2N3c2ccccc2)s/c1=C1/SC(=S)N(Cc2ccccc2)C1=O` (stereo not drawn) [Dye 66] are 586 nm, 661 nm and 75.

The test system of a further data set is Zebrafish juveniles. Kind of data set: In vivo labelling of Zebrafish juveniles with probe for biological specimen. Also noted: key to Staining property: +++: stained; −: no stained; key to Fluorescence sensitivity: +++: strongly observed; ++: moderately observed; +: weakly observed; −: no stained. To be noted: 10 ng/mL in water, 1 hour, stereoscopic microscope. As for the experimental part: Five juveniles of Zebrafish were put into one well of a well plate together with rearing water. After rearing water had been discharged, 1 mL of distilled water was added to the well, and a solution of a staining compound (1) in DMSO was further added thereto so as to achieve a concentration of 10 ng/mL, followed by gentle stirring (pipetting). Further, Egg Water was prepared by dissolving artificial seawater SEALIFE (manufactured by Marinetech Co., Ltd.) in distilled water at a concentration of 60 mg/L. After the whole had been left to stand for 1 hour, distilled water in the well was discharged and replaced by 1 mL of fresh Egg Water. In addition, such an operation that Egg Water was discharged and replaced by 1 mL of fresh Egg Water was repeated twice. One of the juveniles was taken out from the well onto a dish, supplemented with 100 μL of a 3% methylcellulose aqueous solution to fix the movement of the juvenile, and photographed with a stereoscopic microscope (MZ10F: manufactured by Leica Microsystems K.K.).
The same operation as that in Example 1 was performed except that the staining compound (1) used in Example 1 was changed to any one of the staining compounds described in Table 1.
The same operation as that in Example 1 was performed except that the staining compound (1) used in Example 1 was changed to any one of indocyanine green (ICG) and fluorescein.
The staining property of each of the staining compounds of Labelled Examples 1 to 78 and Labelled Comparative Examples 1 and 2 was visually evaluated (+++: stained and −: no stained).
The fluorescence intensity of each of the staining compounds of Labelled Examples 1 to 78 and Labelled Comparative Examples 1 and 2 was visually evaluated (+++: strongly observed, ++: moderately observed, +: weakly observed, and −: no stained).
Take `COc1ccc(N2c3ccc(/C=C4\C(=O)N(c5ccc(C(=O)O)cc5)N=C4C)cc3C3CCCC32)cc1` (stereo not drawn) [Dye 54]: the “Site(s) to be labelled” value was “gastrointestinal tract and nose”.
On the same count and under the same terms, the result for `COc1ccc(N2c3ccc(/C=C(\C#N)C(=O)O)cc3C3CCCC32)cc1` (stereo not drawn) [Dye 56] reads “liver, gallbladder, and gastrointestinal tract”.
Regarding `CCN1C(=O)/C(=c2\s/c(=C/c3cc(Br)c4c(c3)C3CCCC3N4c3ccc(Br)cc3)c(=O)n2CC(=O)O)SC1=S` (stereo not drawn) [Dye 59], the “Site(s) to be labelled” value was “blood vessel, nose, and gastrointestinal tract”.
The same measure, in the same setting: next, `CCCCN1C(=O)/C(=c2\s/c(=C/c3ccc4c(c3)C3CCCC3N4c3ccccc3)c(=O)n2CC(=O)OCC)SC1=S` (stereo not drawn) [Dye 60]: “gastrointestinal tract”; `CCCCN1C(=O)/C(=c2\s/c(=C/c3ccc4c(c3)C3CCCC3N4c3ccc(OC)cc3)c(=O)n2CC(=O)OCC)SC1=S` (stereo not drawn) [Dye 62]: “gastrointestinal tract”; `O=C(O)Cn1c(=O)/c(=C\c2ccc3c(c2)C2CCCC2N3c2ccccc2)s/c1=C1/SC(=S)N(Cc2ccccc2)C1=O` (stereo not drawn) [Dye 66]: “blood vessel, nose, and gastrointestinal tract”.

The same data set, now with this note: 10 ng/mL, 1 hour, fluorescence intensity visually evaluated.
Take `COc1ccc(N2c3ccc(/C=C4\C(=O)N(c5ccc(C(=O)O)cc5)N=C4C)cc3C3CCCC32)cc1` (stereo not drawn) [Dye 54]: the Fluorescence sensitivity result is recorded as “++”.
Still for that read-out and setting: next, `COc1ccc(N2c3ccc(/C=C(\C#N)C(=O)O)cc3C3CCCC32)cc1` (stereo not drawn) [Dye 56]: “+++”; `CCN1C(=O)/C(=c2\s/c(=C/c3cc(Br)c4c(c3)C3CCCC3N4c3ccc(Br)cc3)c(=O)n2CC(=O)O)SC1=S` (stereo not drawn) [Dye 59]: “+++”.
As for `CCCCN1C(=O)/C(=c2\s/c(=C/c3ccc4c(c3)C3CCCC3N4c3ccccc3)c(=O)n2CC(=O)OCC)SC1=S` (stereo not drawn) [Dye 60], the Fluorescence sensitivity entry is given as “++”.
As to `CCCCN1C(=O)/C(=c2\s/c(=C/c3ccc4c(c3)C3CCCC3N4c3ccc(OC)cc3)c(=O)n2CC(=O)OCC)SC1=S` (stereo not drawn) [Dye 62], the Fluorescence sensitivity result is reported as “+++”.
On the same count and under the same terms, next, `O=C(O)Cn1c(=O)/c(=C\c2ccc3c(c2)C2CCCC2N3c2ccccc2)s/c1=C1/SC(=S)N(Cc2ccccc2)C1=O` (stereo not drawn) [Dye 66]: “++”.

The same data set, now with this note: 10 ng/mL, 1 hour, visually evaluated.
In the case of `COc1ccc(N2c3ccc(/C=C4\C(=O)N(c5ccc(C(=O)O)cc5)N=C4C)cc3C3CCCC32)cc1` (stereo not drawn) [Dye 54], the Staining property result is listed as “+++”.
As to `COc1ccc(N2c3ccc(/C=C(\C#N)C(=O)O)cc3C3CCCC32)cc1` (stereo not drawn) [Dye 56], the Staining property entry is “+++”.
As to `CCN1C(=O)/C(=c2\s/c(=C/c3cc(Br)c4c(c3)C3CCCC3N4c3ccc(Br)cc3)c(=O)n2CC(=O)O)SC1=S` (stereo not drawn) [Dye 59], the Staining property result is recorded as “+++”.
Turning to `CCCCN1C(=O)/C(=c2\s/c(=C/c3ccc4c(c3)C3CCCC3N4c3ccccc3)c(=O)n2CC(=O)OCC)SC1=S` (stereo not drawn) [Dye 60], the Staining property entry is “+++”.
Consider `CCCCN1C(=O)/C(=c2\s/c(=C/c3ccc4c(c3)C3CCCC3N4c3ccc(OC)cc3)c(=O)n2CC(=O)OCC)SC1=S` (stereo not drawn) [Dye 62], for which the Staining property result is on record as “+++”.
Turning to `O=C(O)Cn1c(=O)/c(=C\c2ccc3c(c2)C2CCCC2N3c2ccccc2)s/c1=C1/SC(=S)N(Cc2ccccc2)C1=O` (stereo not drawn) [Dye 66], the Staining property result was “+++”.
